US20240156971A1, “METHODS AND SORTILIN BINDING CONJUGATE COMPOUNDS FOR TARGETING CANCER STEM CELLS” (TRANSFERT PLUS, SOCIÉTÉ EN COMMANDITE, priority 2021, published 2024)
Square brackets hold non-standard residues; d marks the D form. Ends that are not written are not given here. Nle = CCCC[C@H](N)C(=O)O

Columns and labels:
hBCSC xenografts = assay: Growth of hBCSC xenografts in mice; assay type: in vivo; settings: for growth of tumors originating from breast CSCs: weekly i.v., TH1902 at doses equivalent to 1, 1.25 or 1.5 the MTD of docetaxel, docetaxel 15 mg/kg (MTD)
Source text: (§1) In vivo Assessment of Docetaxel and TH1902 Anti-Tumor Efficacy. Tumor xenografts were established by subcutaneous inoculation of 10^3 hBCSC cells, hOvCSC and hPCSC resuspended in […] of HBSS containing 50% Matrigel™, into the right flank of NCG triple immunodeficient female mice (Charles River, Saint-Constant QC) under light isoflurane anesthesia. Three days following implantation of either hBCSC or hOvCSCS, mice commenced receiving weekly treatment by intravenous bolus injections of vehicle (10% polysorbate-80, 5% dextrose, 0.04% formic acid pH 4.3), docetaxel (15 mg/kg (the MTD for this agent) or 3.75 mg/kg (¼ MTD for this agent), dissolved in 5% dextrose, 3.3% ethanol, 1.7% Tween™-80) or TH1902 (35 mg/kg or 8.75 mg/kg) dissolved in vehicle. Note that the two TH1902 and docetaxel concentrations contain equimolar amounts of docetaxel due to the two docetaxel moieties per TH1902 molecule. Tumor growth was measured using two-dimensional measurements taken with an electronic caliper, and tumor volume was calculated according to the following formula: tumor volume (mm^3)=π/6×length×width^2. Animal weights were measured three times per week with a precision of 10 mg.

hOvCSC xenografts = assay: Growth of hOvCSC xenografts in mice; assay type: in vivo; settings: weekly i.v.; TH1902 at doses equivalent to 1, 1.25 or 1.5 the MTD of docetaxel; docetaxel 15 mg/kg (MTD)
Source text: as §1, with “[…])” for “1.7% Tween™-80) or TH1902 (35 mg/kg or 8.75 mg/kg)”, “Note that the two TH1902 and docetaxel concentrations contain equimolar amounts of docetaxel due to the two docetaxel moieties per TH1902 molecule.” left out

hBCSCs [1] = assay: Cell cycle analysis (G2/M) of hBCSCs; assay type: cell-based, human; settings: 2 h with 4 μM docetaxel or 2 μM TH1902, then 22 h or 48 h
Method: (§2) Cell Cycle Analysis Following Treatment of hBCSC by Test Articles. hBCSCs (2.8×10^5 cells/well) and MDA-MB-231/luc cells (2.3×10^5 cells/well) were seeded in 6-well plates one day prior to treatment. To test the effects of Docetaxel and TH1902 on cell cycle phases, hBCSCs and MDA-MB-231/luc cells were treated for 2 hours in serum-free media with vehicle (DMSO), 4 μM docetaxel or 2 μM TH1902 (equimolar of docetaxel), rinsed with complete media and incubated in fresh complete media for 22 and 48 hours. For the experiments with the P-gp inhibitors, hBCSCs were first pre-treated for 30 minutes in serum-free media with vehicle (DMSO), or 10 μM cyclosporine A or PSC-833 (P-gp inhibitors). Next, cells were treated for 2 hours with 4 μM docetaxel or 2 μM TH1902 in the continued presence or absence of the P-gp inhibitors before being rinsed and incubated in fresh complete media in the continued presence or absence of the P-gp inhibitors. Cells were then incubated for 22 and 48 hours. In both assays, following the incubation, cells were detached with trypsin, fixed with ice-cold 70% EtOH and kept overnight at 4° C. Cells were washed once with PBS, after which they were stained for 30 minutes at room temperature with FxCycle™ PI/RNase Staining Solution (Thermo Scientific, Waltham, MA; #F10797). Cells were finally subjected to cell cycle analysis using a BD Accuri™ C6 flow cytometer.

hBCSCs [2] = assay: Scratch (wound-healing) assay of hBCSC migration; assay type: cell-based, human; settings: 2 h treatment, 2 μM docetaxel or 1 μM TH1902; images at 24 and 48 h
Method: Inhibition of hBCSC Migration by Test Articles. Cell migration experiments were carried out using the scratch (wound-healing) assay. Cells (2.8×10^5 cells /well) were plated in 6-well plates for 24 hours and then scratched using a sterile p200 pipette tip. Cells were washed with serum-free medium to remove the detached cells, then treated for 2 hours with serum-free medium containing vehicle (DMSO), 2 μM Docetaxel, or 1 μM TH1902. Cells were rinsed with complete media and incubated for 48 hours in a fresh complete media. Images were acquired, at 0, 24 and 48 hours after scratching, with an inverted microscope.

[3] = system: MDA-MB-231/luciferase tumor xenografts; assay: Cancer relapse in MDA-MB-231/luciferase xenograft mouse model of TNBC; assay type: in vivo, mice; settings: treated at day 0, 7, 14 and 21; for cancer relapse at later time points (day 74): assessed up to day 74
Method: It was then assessed whether treatment with docetaxel or TH1902 could prevent cancer relapse using the MDA-MB-231/luciferase xenograft mouse model of TNBC. The MDA-MB-231 tumor cell has been reported to have cells with cancer stem cell (CSC)-like properties (Sleeboom et al., Int J Mol Sci. 2018 October; 19(10): 3047; Ghanbari et al., Int. J. Morphol., 34(4):1197-1202, 2016). Mice with MDA-MB-231/luciferase tumor xenografts were treated a day 0, 7, 14 and 21 with either vehicle (control), Docetaxel or TH1902 and tumor growth was assessed up to day 74.

pancreatic CSCs = assay: Growth of tumors originating from pancreatic CSCs in mice; assay type: in vivo; settings: TH1902 at doses equivalent to 1, 1.25 or 1.5 the MTD of docetaxel; docetaxel 15 mg/kg (MTD)
Source text: as §1

hBCSCs [4] = assay: Cell cycle analysis (G2/M) of hBCSCs with or without P-gp inhibitors; assay type: cell-based, human
Method: as §2

Row | Molecule | growth of tumors originating from breast CSCs (hBCSC xenografts) | growth of tumors originating from ovarian CSCs (hOvCSC xenografts) | G2/M cell cycle arrest (hBCSCs [1]) | recolonization of scratched region by hBCSCs (migration) (hBCSCs [2]) | tumor growth during and shortly after administration [3] | cancer relapse at later time points (day 74) [3] | growth of tumors originating from pancreatic CSCs (pancreatic CSCs) | tumor growth curve at 8.75 mg/kg TH1902 (eq. to 1/4 of docetaxel MTD) (hBCSC xenografts; hBCSC xenografts, weekly, FIG. 8A) | G2/M cell cycle arrest in the presence of CsA (hBCSCs [4]; 10 μM CsA, 4 μM docetaxel or 2 μM TH1902) | G2/M cell cycle arrest in the presence of PCC-831 (hBCSCs [4]; 10 μM inhibitor, 4 μM docetaxel or 2 μM TH1902) | proportion of cells in G2/M phase (hBCSCs [4]; no efflux inhibitor, 4 μM docetaxel or 2 μM TH1902, FIG. 6C-D)
1 | CC(=O)O[C@@]12CO[C@@H]1C[C@H](O)[C@@]1(C)C(=O)[C@H](O)C3=C(C)[C@@H](OC(=O)[C@H](O)[C@@H](NC(=O)OC(C)(C)C)c4ccccc4)C[C@@](O)([C@@H](OC(=O)c4ccccc4)[C@H]21)C3(C)C [docetaxel, reference compound] | no significant reduction of tumor growth | no significant reduction of tumor growth | not | completely recolonized | reduction in tumor growth | tumor resurgence was observed | no significant reduction of tumor growth |  |  |  | 
2 | Acetyl-GVRAK(docetaxel)AGVRN(Nle)FK(docetaxel)SESY (Ac-GVRAK(docetaxel)AGVRN[Nle]FK(docetaxel)SESY) [TH1902] | significant inhibition of the growth of tumors | significant inhibition of the growth of tumors | significant increase in G2/M cell cycle arrest | remained virtually barren of hBCSC for at least 48 hours | reduction in tumor growth | No residual tumor could be detected | significant inhibition of the growth of tumors | virtual overlap between the 15 mg/kg docetaxel curve and the 8.75 mg/kg TH1902 curve | no effect | no effect | strong increase in the proportion of cells in G2/M phase
